Results on 32 compounds are retold here after patent US7495104B2, “Quinoline or quinazoline derivatives inhibiting auto-phosphorylation of fibroblast growth factor receptors” (Kirin Beer Kabushiki Kaisha, priority 2001, dated 2009).

Counter-ions that a name gives are not always drawn. Bounds are passed on as bounds.

Chain of Bek (P21802 431-767 limits assumed): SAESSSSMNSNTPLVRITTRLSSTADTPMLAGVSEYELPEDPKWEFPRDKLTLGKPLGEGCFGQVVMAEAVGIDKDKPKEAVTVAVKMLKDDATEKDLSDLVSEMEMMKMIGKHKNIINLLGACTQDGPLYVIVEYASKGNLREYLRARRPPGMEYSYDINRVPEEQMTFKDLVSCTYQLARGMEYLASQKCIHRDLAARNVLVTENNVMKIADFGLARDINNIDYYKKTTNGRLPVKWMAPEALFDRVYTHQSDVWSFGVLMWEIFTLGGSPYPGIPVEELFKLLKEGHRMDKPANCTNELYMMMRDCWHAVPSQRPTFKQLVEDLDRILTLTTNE

This assay has as its target Bek (Homo sapiens, UniProt P21802). Description: Inhibitory activity against Bek-autophosphorylation using ELISA method in OCUM-2MD3 cells. The format is cell-based. Conditions: 1 hr with compound, read-out: IC50 (concentration necessary for inhibiting 50% of Bek-phosphorylation). The method, boiled down:
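OCUM-2MD3 human scirrhous gastric cancer cells in 0.1% FCS were exposed to compound for 1 hr at 37° C, then lysed. Phospho-tyrosine proteins were captured with anti-phosphotyrosine antibody, probed with anti-Bek antibody and peroxidase read-out (A450). Positive control (1000 nM) set 0%, untreated 100%; IC50 from multi-level dilutions.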
(ELISA stands for enzyme-linked immunosorbent assay.)
`COc1cc2c(Oc3ccc(Nc4ccc(C(C)(C)C)cc4)cc3)ccnc2cc1OCCC(C)N1CCOCC1` (centres unmarked) [Compound 80, (4-Tert-butylphenyl)-{4-[6-methoxy-7-(3-morpholin-4-ylbutoxy)-quinolin-4-yloxy]phenyl}amine]: the IC50 is 0.151 µM.

In the case of `COc1cc2c(Oc3ccc(Nc4ccc(C(C)(C)C)cc4)cc3Cl)ccnc2cc1OCCCN1CCC(CCO)CC1` [Compound 314, 2-[1-(3-{4-[4-(4-Tert-butyl-phenylamino)-2-chloro-phenoxy]-6-methoxy-quinolin-7-yloxy}-propyl)-piperidin-4-yl]-ethanol], the IC50 was 0.277 µM. Then `COc1cc2c(Oc3ccc(NC(=O)NCCC(C)(C)C)cc3)ccnc2cc1OCCCCBr` [Compound 148, 1-{4-[7-(4-Bromo-butoxy)-6-methoxy-quinolin-4-yloxy]-phenyl}-3-(3,3-dimethyl-butyl)-urea], with 1.67 µM.

Consider `CCC(CO)(CO)NCCOc1cc2nccc(Oc3ccc(Nc4ccc(C(C)(C)C)cc4)cc3)c2cc1OC` [Compound 351, 2-(2-{4-[4-(4-Tert-butyl-phenylamino)-phenoxy]-6-methoxy-quinolin-7-yloxy}-ethylamino)-2-ethyl-propan-1,3-diol], for which the IC50 turned out to be 0.232 µM. Regarding `COc1cc2nccc(Oc3ccc(NC(=O)NCCC(C)(C)C)cc3)c2cc1OCC(O)CN(C)C` (centres unmarked) [Compound 226, 1-{4-[6-(3-Dimethylamino-2-hydroxy-propoxy)-7-methoxy-quinolin-4-yloxy]-phenyl}-3-(3,3-dimethyl-butyl)-urea], the IC50 came out at 0.0279 µM. Take `C=Cc1ccc(Nc2ccc(Oc3ccnc4cc(OC)c(OC)cc34)cc2)cc1` [Compound 2, [4-(6,7-Dimethoxyquinolin-4-yloxy)phenyl]-(4-vinylphenyl)amine]: the IC50 was determined as 7.94 µM.

On to `COc1cc2c(Oc3ccc(NC(=O)NCCC(C)(C)C)cc3)ccnc2cc1OCCCN1CCC(CCO)CC1` [Compound 220, 1-(3,3-Dimethyl-butyl)-3-[4-(7-{3-[4-(2-hydroxy-ethyl)-piperidin-1-yl]-propoxy}-6-methoxy-quinolin-4-yloxy)-phenyl]-urea], for which the IC50 was determined as 0.012 µM.

`COc1cc2c(Oc3ccc(Nc4ccc(C(C)(C)C)cc4)cc3)ccnc2cc1OCCN1CCC(CO)CC1` [Compound 81, [1-(2-{4-[4-(4-Tert-butylphenylamino)phenoxy]-6-methoxy-quinolin-7-yloxy}ethyl)piperidin-4-yl]methanol]: the IC50 stood at 0.0101 µM. For the compound `COc1cc2c(Oc3ccc(Nc4ccc(C(C)(C)C)cc4)cc3)ccnc2cc1OCCCN1CC(C)OC(C)C1` (centres unmarked) [Compound 232, (4-Tert-butyl-phenyl)-(4-{7-[3-(2,6-dimethyl-morpholin-4-yl)-propoxy]-6-methoxy-quinolin-4-yloxy}-phenyl)-amine], the IC50 is 0.103 µM.

On to `COc1cc2c(Oc3ccc(NC(=O)NCCC(C)(C)C)c(F)c3)ccnc2cc1OCCN1CCC(O)CC1` [Compound 299, 1-(3,3-Dimethyl-butyl)-3-(2-fluoro-4-{7-[2-(4-hydroxy-piperidin-1-yl)-ethoxy]-6-methoxy-quinolin-4-yloxy}-phenyl)-urea], for which the IC50 came to 0.0274 µM.

Consider `COc1cc2nccc(Oc3ccc(Nc4ccc(C(C)(C)C)cc4)cc3Cl)c2cc1OC` [Compound 12, (4-Tert-butylphenyl)-[3-chloro-4-(6,7-dimethoxyquinolin-4-yloxy)phenyl]amine], for which the IC50 came to 0.285 µM. Regarding `COc1cc2nccc(Oc3ccc(Nc4ccc(OCc5ccccc5)cc4)cc3)c2cc1OC` [Compound 7, (4-Benzyloxyphenyl)-[4-(6,7-dimethoxyquinolin-4-yloxy)phenyl]-amine], the IC50 was 1.8 µM.

With `COc1cc2nccc(Oc3ccc(NC(=O)NCCC(C)(C)C)c(C)c3C)c2cc1OC` [Compound 141, 1-[4-(6,7-Dimethoxy-quinolin-4-yloxy)-2,3-dimethyl-phenyl]-3-(3,3-dimethyl-butyl)-urea], the IC50 was found to be 0.0586 µM.

As for `COc1cc2c(Oc3ccc(NC(=O)NC4CCCC(C)(C)C4)c(F)c3)ccnc2cc1OCCN1CC(C)OC(C)C1` (centres unmarked) [Compound 134, 1-(3,3-Dimethyl-cyclohexyl)-3-(4-{7-[2-(2,6-dimethyl-morpholin-4-yl)-ethoxy]-6-methoxy-quinolin-4-yloxy}-2-fluoro-phenyl)-urea], the IC50 is 0.0118 µM. As for `COc1cc2c(Oc3ccc(NC(=O)NCCC(C)(C)C)c(F)c3)ccnc2cc1OCCCN1CC(C)OC(C)C1` (centres unmarked) [Compound 325, 1-(3,3-Dimethyl-butyl)-3-(4-{7-[3-(2,6-dimethyl-morpholin-4-yl)-propoxy]-6-methoxy-quinolin-4-yloxy}-2-fluoro-phenyl)-urea], the IC50 was determined as 0.0342 µM. Then `COc1cc2c(Oc3ccc(NC(=O)NCCC(C)(C)C)cc3)ccnc2cc1OCCN1CCOCC1` [Compound 112, 1-(3,3-Dimethyl-butyl)-3-{4-[6-methoxy-7-(2-morpholin-4-yl-ethoxy)-quinolin-4-yloxy]-phenyl}-urea hydrochloride], with 0.0521 µM; and `COc1cc2c(Oc3ccc(Nc4ccc(C(C)(C)C)cc4)cc3)ccnc2cc1OCC1CCCCN1C` (centres unmarked) [Compound 55, (4-Tert-butylphenyl)-{4-[6-methoxy-7-(1-methylpiperidin-2-ylmethoxy)quinolin-4-yloxy]phenyl}amine], with 8 µM; and `COc1cc2c(Oc3ccc(NC(=O)NCCC(C)(C)C)cc3)ccnc2cc1OCC(O)CN1CCC(Cc2ccccc2)CC1` (centres unmarked) [Compound 260, 1-(4-{7-[3-(4-Benzyl-piperidin-1-yl)-2-hydroxy-propoxy]-6-methoxy-quinolin-4-yloxy}-phenyl)-3-(3,3-dimethyl-butyl)-urea], with 0.0267 µM. Regarding `COc1cc2c(Oc3ccc(NC(=O)NCCC(C)(C)C)c(Cl)c3)ccnc2cc1OCC(O)CN1CCCCC1` (centres unmarked) [Compound 193, 1-{2-Chloro-4-[7-(2-hydroxy-3-piperidin-1-yl-propoxy)-6-methoxy-quinolin-4-yloxy]-phenyl}-3-(3,3-dimethyl-butyl)-urea], the IC50 was 0.0174 µM. Under `COc1cc2nccc(Oc3ccc(NC(=O)NCCC(C)(C)C)cc3F)c2cc1OC` [Compound 102, 1-[4-(6,7-Dimethoxy-quinolin-4-yloxy)-3-fluorophenyl]-3-(3,3-dimethyl-butyl)-urea] stands 0.0278 µM; under `COc1cc2c(Oc3ccc(NC(=O)NCCC(C)(C)C)cc3)ccnc2cc1OCC(=O)N1CCOCC1` [Compound 375, 1-(3,3-Dimethyl-butyl)-3-{4-[6-methoxy-7-(2-morpholin-4-yl-2-oxo-ethoxy)-quinolin-4-yloxy]-phenyl}-urea], 0.028 µM. With `COc1cc2c(Oc3ccc(NC(=O)NCCC(C)(C)C)c(Cl)c3)ccnc2cc1OCCN1CCN(C)CC1` [Compound 115, 1-(2-Chloro-4-{6-methoxy-7-[2-(4-methyl-piperazin-1-yl)-ethoxy]-quinolin-4-yloxy}-phenyl)-3-(3,3-dimethyl-butyl)-urea], the IC50 is less than 0.01 µM.

As for `COc1cc2c(Oc3ccc(NC(=O)NCCC(C)(C)C)cc3)ccnc2cc1OCCNC1(CO)CCCC1` [Compound 359, 1-(3,3-Dimethyl-butyl)-3-(4-{7-[2-(1-hydroxymethyl-cyclopenthylamino)-ethoxy]-6-methoxy-quinolin-4-yloxy}-phenyl)-urea], the IC50 was 0.254 µM. Turning to `COc1cc2c(Oc3ccc(NC(=O)NCCC(C)(C)C)c(Cl)c3)ccnc2cc1OCCN1CCC(CO)CC1` [Compound 275, 1-(2-Chloro-4-{7-[2-(4-hydroxymethyl-piperidin-1-yl)-ethoxy]-6-methoxy-quinolin-4-yloxy}-phenyl)-3-(3,3-dimethyl-butyl)-urea], the IC50 worked out at 0.0316 µM. As to `COc1cc2c(Oc3ccc(NC(=O)NCCC(C)(C)C)c(Cl)c3)ccnc2cc1OCCN1CCCCCC1` [Compound 185, 1-{4-[7-(2-Azepan-1-yl-ethoxy)-6-methoxy-quinolin-4-yloxy]-2-chloro-phenyl}-3-(3,3-dimethyl-butyl)-urea], the IC50 came out at 0.0548 µM. `COc1cc2c(Oc3ccc(Nc4ccc(C(C)(C)C)cc4)cc3)ccnc2cc1OCCN1CC(C)OC(C)C1` (centres unmarked) [Compound 238, (4-Tert-butyl-phenyl)-(4-{7-[2-(2,6-dimethyl-morpholin-4-yl)-ethoxy]-6-methoxy-quinolin-4-yloxy}-phenyl)-amine]: the IC50 was found to be 0.0472 µM. Under `COc1cc2c(Oc3ccc(Nc4ccc(C(C)(C)C)cc4)cc3)ccnc2cc1OCCCN1CCC(N2CCCCC2)CC1` [Compound 236, {4-[7-(3-[1,4′]Bipiperidineyl-1 ′-yl-propoxy)-6-methoxy-quinolin-4-yloxy]-phenyl}-(4-tert-butyl-phenyl)-amine] stands 0.269 µM.

With `COc1cc2c(Oc3ccc(Nc4ccc(C(C)(C)C)cc4)cc3F)ccnc2cc1OCCCN1CCC(CCO)CC1` [Compound 272, 2-[1-(3-{4-[4-(4-Tert-butyl-phenylamino)-2-fluoro-phenoxy]-6-methoxy-quinolin-7-yloxy}-propyl)-piperidin-4-yl]-ethanol], the IC50 came to 0.151 µM. As to `COc1cc2c(Oc3ccc(NC(=O)NCCC(C)(C)C)c(Cl)c3)ccnc2cc1OCCN(C)C` [Compound 166, 1-{2-Chloro-4-[7-(2-dimethylamino-ethoxy)-6-methoxy-quinolin-4-yloxy]-phenyl}-3-(3,3-dimethyl-butyl)-urea], the IC50 is 0.039 µM. `COc1cc2c(Oc3ccc(Nc4ccc(C(C)(C)C)cc4)cc3)ccnc2cc1OCCCl` [Compound 22, (4-Tert-butylphenyl)-{4-[7-(2-chloroethoxy)-6-methoxyquinolin-4-yloxy]phenyl}amine]: the IC50 was found to be 0.189 µM. `COc1cc2c(Oc3ccc(Nc4ccc(C(C)(C)C)cc4)c(Cl)c3)ccnc2cc1OCCN(CCO)CCO` [Compound 337, 2-[(2-{4-[4-(4-Tert-butyl-phenylamino)-3-chloro-phenoxy]-6-methoxy-quinolin-7-yloxy}-ethyl)-(2-hydroxy-ethyl)-amino]-ethanol]: the IC50 was found to be 0.252 µM. Regarding `COc1cc2c(Oc3ccc(Nc4ccc(C(C)(C)C)cc4)cc3)ccnc2cc1OCC(O)CN1CCN(C)CC1` (centres unmarked) [Compound 64, 1-{4-[4-(4-Tert-butylphenylamino)phenoxy]-6-methoxyquinolin-7-yloxy}-3-(4-methylpiperazin-1-yl)propan-2-ol], the IC50 amounted to 0.178 µM.
